Consider two compounds from ChEMBL document CHEMBL2046283, “Iotrochamides A and B, antitrypanosomal compounds from the Australian marine sponge Iotrochota sp” (Bioorg Med Chem Lett, 2012).

For data set [1], the system named is Trypanosoma brucei brucei. The data set is described as follows: Antitrypanosomal activity against Trypanosoma brucei brucei BS427 after 48 hrs by alamar blue assay. It counts as functional, organism-based. To be noted: BS427, 48 h. (In general: Alamar Blue is a resazurin reagent that responds to reducing activity.)
The nature of data set [2]: Growth inhibition of human HEK293 cells at 50 uM after 48 hrs by alamar blue assay relative to control. As to conditions: read-out: GI. It counts as cell-based.
Data set [3] can be described thus: Growth inhibition of human HEK293 cells at 70 uM after 48 hrs by alamar blue assay relative to control. To be noted: read-out: GI. It counts as cell-based.

Take `CO/C(=C\c1ccccc1)C(=O)N[C@@H](Cc1ccc(O)cc1)C(=O)O` [IOTROCHAMIDES A]: in data set [1], 4.7 µM corresponded to half-maximal inhibition (IC50). For the same compound, in data set [2], the inhibition at 48 h, 50 µM was 85%.

For `CO/C(=C\c1ccccc1)C(=O)N[C@@H](Cc1c[nH]c2cc(Br)ccc12)C(=O)O` [IOTROCHAMIDES B], the IC50 (in general, the concentration that inhibits the measured activity by half) in data set [1] is 3.4 µM. The inhibition at 48 h, 70 µM in data set [3] was 100%.
